In patent publication US6991804B2, “Delivery systems for periadventitial delivery for treatment of restenosis and anastomotic intimal hyperplasia” (Edwards Lifesciences Corporation, priority 2000, dated 2006):
Marks after values point to notes of the source that are not given here.

What was measured:
Carotid Vein Grafts = assay: Carotid vein grafts (femoral vein interposition, end-to-side anastomoses): percent stenoses of anastomoses by angiography; type: in vivo, Dogs
Experimental: The animal was heparinized (100 IU/kg body weight), and anticoagulated at the surgeon's discretion with additional heparin. The carotid artery was cross-clamped and transected. An interpositional graft with end-to-side anastamoses of the femoral vein to the carotid artery was performed. Anastomoses were identified with a surgical staple. Where indicated, the test or control articles were applied to a uniform thickness and allowed to harden. Grafts were placed in both carotid arteries, with the procedures done in series.
Image analysis was performed by a qualified vascular surgeon who also analyzed the data. REF Images from angiography were captured on a VHS tape. Digital images were captured from this tape and saved after which they were evaluated using NIH Image. The lumenal width of the native arterial segments proximal and distal to the vein grafts, and the proximal and distal anastomoses were measured. The percent stenoses of the anastomoses relative to the adjacent native arterial segment were reported.
Images were captured as described in section above, and were evaluated by NIH Image. The lumenal width of native arterial segments proximal and distal to the graft and the proximal and distal anastomoses were measured.

[1] = tested on: Balloon-injured Femoral Arteries; assay: Balloon-injured femoral arteries: morphometric analysis of histology (media, intima, lumen area); type: in vivo, Dogs
Experimental: (§1) Balloon injury to the femoral arteries by three sequences of inflation and removal of a 4 Fr. Fogarty catheter generated 5 cm lesions in each femoral artery that were or were not treated with test/control articles. Injured areas were tagged with a staple. The insertion site was repaired and the animal was closed.
Carotid arteries were exposed and the healing response was evaluated. The grafts, including anastomoses, were fixed under pressure in situ, and were removed along with 4 cm of proximal and distal host vessel. Femoral arteries were exposed and the healing response was observed. The femoral arteries were then fixed under pressure and removed with distal and proximal host tissue. Femoral and carotid arteries were stored in 10% neutral-buffered formalin until analysis by histology. Specimens for histological evaluation were processed and stained with Hematoxalin and Eosin and with Mallory's Trichrome by IDEXX Veterinary Services, West Sacramento, Calif.
Histology of the femoral arteries was analyzed with Adobe Photoshop. Briefly, (1) the lumen-vessel interface, (2) the internal elastic lamina, and (3) the external elastic lamina were traced on digital images from H&E stained tissue with the greatest amount of hyperplasia. The intimal area was determined by subtracting the area encompassing […]. The medial area was determined by subtracting the area encompassing (2) from (3). The area was measured as (1).
Histology of sections from areas spanning proximal and distal regions of the balloon-injured femorals and of native tissue proximal to the arteriotomy were evaluated by morphometric analysis as described above.

[2] = tested on: Balloon-injured Femoral Arteries; assay: Balloon-injured femoral arteries: lumenal width by angiography; type: in vivo, Dogs; conditions: 12 weeks
Experimental: as §1
Angiography of the femoral arteries was performed at the termination of the experiment. Images were captured as described above and analyzed using NIH Image. Injured areas were identified by radio-opaque clips, and by anatomy. The lumenal widths of the arterial segments were measured just distal to the arteriotomy, and in the mid- and distal portions of the injured segments. The percent stenoses of the anastomoses relative to the adjacent native arterial segment were reported. The mean and least values were reported.
Images from angiography were captured and analyzed as described previously. The lumenal widths of the arterial segments were measured immediately distal to the arteriotomy, and in the mid- and distal portions of the injured segments.

[3] = post-surgery
Experimental: Animals received standard laboratory diet proscribed in QCOP B618, with supplements provided at the discretion of a veterinarian; water was available ad libitum.
Post-operative care was performed as described in QCOP B809, along with prophylactic administration of antibiotics (Sulfamethoxaxole and Trimethoprin); analgesics were supplied as described in QCOP B803. 7 days post surgery, animals received 250 mg/day aspirin. The wound site was debrided and temperature, heart rate and respiratory rates were monitored daily the week following surgery. Angiography of the carotid sites was performed following surgery and monthly thereafter. Intravascular ultrasound (IVUS) was used to examine the vein grafts in 10 animals at the 12 week endpoint of the study.

[4] = angiography, 12 weeks, pooled Paclitaxel groups (4 dogs, 8 vessels)
[5] = histology, 12 weeks, pooled Paclitaxel groups (4 dogs, 8 vessels)
[6] = pooled Paclitaxel groups (4 dogs, 8 vessels)

Q: Which “Stenosis at anastomotic sites of carotid grafts (statement in words)” value (Carotid Vein Grafts; angiography at the 12 week endpoint) does the source give for `CC(=O)O[C@H]1C(=O)[C@@]2(C)[C@H]([C@H](OC(=O)c3ccccc3)[C@]3(O)C[C@H](OC(=O)[C@H](O)[C@@H](NC(=O)c4ccccc4)c4ccccc4)C(C)=C1C3(C)C)[C@]1(OC(C)=O)CO[C@@H]1C[C@@H]2O` [Paclitaxel ®, paclitaxel] here?
A: limited stenosis at the proximal and distal anastomotic sites

Q: What about the “Per Cent Stenoses of Carotid Grafts ± Paclitaxel, Distal Anastomotic Site (mean ± s.d.)” value (Carotid Vein Grafts; [4]) of the same compound?
A: 1.1 ± 2.2%

Q: What about the “Per Cent Stenoses of Carotid Grafts ± Paclitaxel, Proximal Anastomotic Site (mean ± s.d)” value (Carotid Vein Grafts; [4]) of the same compound?
A: 5.9 ± 6.5%

Q: What about the “Intima area of femoral artery in regions of intimal hyperplasia ± Paclitaxel (Mean ± s.d.)” value [1, 5] of the same compound?
A: 1.95 ± 1.00 mm^2

Q: What about the “Intima: Media Ratio ± Paclitaxel” value [1, 5] of the same compound?
A: 0.56 ± 0.23

Q: And the “Lumen area of femoral artery in regions of intimal hyperplasia ± Paclitaxel (Mean ± s.d)” value [1, 5]?
A: 4.98 ± 1.05* mm^2

Q: And the “Media area of femoral artery in regions of intimal hyperplasia ± Paclitaxel (Mean ± s.d.)” value [1, 5]?
A: 3.38 ± 0.84 mm^2

Q: What about the “Change in intimal: medial ratio (statement in words)” value ([1]; morphometric analysis of histology, femoral sections) of the same compound?
A: absence of changes

Q: And the “Larger lumen width versus no Paclitaxel” value ([1]; morphometric analysis of histology, femoral sections with largest stenotic response, p</=0.06)?
A: 44%

Q: And the “Difference between control, vehicle and Paclitaxel treatment groups in femoral lumenal width (statement in words)” value [2]?
A: no significant difference

Q: What about the “Least Lumenal Width of Balloon-Injured Segments Relative to Native Vessel ± Paclitaxel (Mean ± s.d)” value [2, 6] of the same compound?
A: 1.32 ± 0.47 mm

Q: What about the “Men Lumenal Width of Balloon-Injured Segments Relative to Native Vessel ± Paclitaxel (Mean ± s.d.)” value [2, 6] of the same compound?
A: 1.52 ± 0.24 mm

Q: And the “Subcutaneous hematomas at the carotid site (animals affected/animals)” value ([3]; lesions resolved with time)?
A: 4/8

Q: And the “Hematoma at the femoral site (animals affected/animals)” value ([3]; reduced in size with time and healed well)?
A: 2/8
